Experimental findings from patent US12514251B2, “Fused heterocyclic compounds and their use as pest control agents” (priority 2020, dated 2026) are described below.

This experiment concerns Plutella xylostella. Put plainly: Plutella xylostella, leaf dip method. Format: in vivo. Particulars: foliar, cabbage leaf dip, second instar larvae, 72 h after release, dead + moribund vs untreated control, read-out: percent mortality. The protocol:
The leaf dip method was used for testing, wherein the required quantity of the compound was weighed and dissolved in a tube containing solvent solution. The tube was put on a vortex at 2000 rpm for 90 min for proper mixing, then diluted with 0.01% Triton-X solution to get the desired test concentration. Cabbage leaves were dipped in the compound solution for 10 seconds, shade dried for 20 min and then transferred into the cells of bioassay trays. A single second instar larva was released into each cell and the tray was covered with a lid. The bio-assay trays were then kept under laboratory conditions at a temperature of 25° C. and a relative humidity of 70%. Observations on dead, moribund and alive larvae were recorded 72 h after the release. Percent mortality was calculated by combining dead and moribund larvae and comparing the result to the one of the untreated control.
The mortality is the percentage killed. As to `CCSc1cc(-c2ccc(F)cc2)cnc1-c1ccn2nc(C(F)(F)F)cc2n1` [Compound 190, 5-(3-(ethylthio)-5-(4-fluorophenyl)pyridin-2-yl)-2-(trifluoromethyl)pyrazolo[1,5-a]pyrimidine], the mortality at 300 ppm is no less than 70%.
Turning to `CCS(=O)(=O)c1cc(-c2cc(F)cc(F)c2)cnc1-c1ccn2nc(C(F)(F)F)nc2n1` [Compound 103, 5-(5-(3,5-difluorophenyl)-3-(ethylsulfonyl)pyridin-2-yl)-2-(trifluoromethyl)-[1,2,4]triazolo[1,5-a]pyrimidine], the mortality at 300 ppm is no less than 70%.
As to `CCc1cnc(-c2ccn3nc(C(F)(F)F)cc3n2)c(S(=O)(=O)CC)c1` [Compound 211, 5-(5-ethyl-3-(ethylsulfonyl)pyridin-2-yl)-2-(trifluoromethyl)pyrazolo[1,5-a]pyrimidine], the mortality at 300 ppm is no less than 70%.
To `CCS(=O)(=O)c1cc(-c2ccc(OC(F)(F)F)cc2)cnc1-c1ncc2nc(C(F)(F)F)n(C)c2n1` [Compound 119, 2-(3-(ethylsulfonyl)-5-(4-(trifluoromethoxy)phenyl)pyridin-2-yl)-9-methyl-8-(trifluoromethyl)-9H-purine] belongs no less than 70%; to `CCc1ccc(S(=O)(=O)CC)c(-c2ccn3nc(C(F)(F)F)cc3n2)n1` [Compound 209, 5-(6-ethyl-3-(ethylsulfonyl)pyridin-2-yl)-2-(trifluoromethyl)pyrazolo[1,5-a]pyrimidine], no less than 70%; to `CCS(=O)(=O)c1ccc(-c2ccc(C#N)cc2)nc1-c1ccn2nc(C(F)(F)F)cc2n1` [Compound 18, 4-(5-(ethylsulfonyl)-6-(2-(trifluoromethyl)pyrazolo[1,5-a]pyrimidin-5-yl)pyridin-2-yl)benzonitrile], no less than 70%.
Under `CCS(=O)(=O)c1ccc(-c2ccc(F)cc2)nc1-c1ccn2nc(C(F)(F)F)cc2n1` [Compound 16, 5-(3-(ethylsulfonyl)-6-(4-fluorophenyl)pyridin-2-yl)-2-(trifluoromethyl)pyrazolo[1,5-a]pyrimidine] stands no less than 70%; under `CCS(=O)(=O)c1cc(-c2ccc(F)cc2)cnc1-c1ncc2nc(C(F)(F)F)n(C)c2n1` [Compound 118, 2-(3-(ethylsulfonyl)-5-(4-fluorophenyl)pyridin-2-yl)-9-methyl-8-(trifluoromethyl)-9H-purine], no less than 70%.
Under `CCS(=O)(=O)c1ccc(C(C)C)nc1-c1ccn2nc(C(F)(F)F)cc2n1` [Compound 238, 5-(3-(ethylsulfonyl)-6-isopropylpyridin-2-yl)-2-(trifluoromethyl)pyrazolo[1,5-a]pyrimidine] stands no less than 70%; under `CCS(=O)(=O)c1ccc(N(C)C2CC2)nc1-c1ccn2nc(C(F)(F)F)nc2n1` [Compound 176, N-cyclopropyl-5-(ethylsulfonyl)-N-methyl-6-(2-(trifluoromethyl)-[1,2,4]triazolo[1,5-a]pyrimidin-5-yl)pyridin-2-amine], no less than 70%.
With `CCS(=O)(=O)c1ccc(N2CCn3c(nnc3C(F)(F)F)C2)nc1-c1ccn2nc(C(F)(F)F)cc2n1` [Compound 6, 7-(5-(ethylsulfonyl)-6-(2-(trifluoromethyl)pyrazolo[1,5-a]pyrimidin-5-yl)pyridin-2-yl)-3-(trifluoromethyl)-5,6,7,8-tetrahydro-[1,2,4]triazolo[4,3-a]pyrazine], the mortality at 300 ppm was no less than 70%.
On to `CCS(=O)(=O)c1ccc(OC)nc1-c1ccn2nc(C(F)(F)F)cc2n1` [Compound 226, 5-(3-(ethylsulfonyl)-6-methoxypyridin-2-yl)-2-(trifluoromethyl)pyrazolo[1,5-a]pyrimidine], for which the mortality at 300 ppm is no less than 70%.
In the case of `CCS(=O)(=O)c1cc(-n2cc(Br)cn2)cnc1-c1ccn2nc(C(F)(F)F)cc2n1` [Compound 88, 5-(5-(4-bromo-1H-pyrazol-1-yl)-3-(ethylsulfonyl)pyridin-2-yl)-2-(trifluoromethyl)pyrazolo[1,5-a]pyrimidine], the mortality at 300 ppm was no less than 70%.
Under `CCS(=O)(=O)c1ccc(OCC(F)(F)F)nc1-c1ccn2nc(C(F)(F)F)cc2n1` [Compound 239, 5-(3-(ethylsulfonyl)-6-(2,2,2-trifluoroethoxy)pyridin-2-yl)-2-(trifluoromethyl)pyrazolo[1,5-a]pyrimidine] stands no less than 70%; under `CCS(=O)(=O)c1cc(N(C)C)cnc1-c1ccn2nc(C(F)(F)F)cc2n1` [Compound 230, 5-(ethylsulfonyl)-N,N-dimethyl-6-(2-(trifluoromethyl)pyrazolo[1,5-a]pyrimidin-5-yl)pyridin-3-amine], no less than 70%; under `CCS(=O)(=O)c1cc(-c2cnn(C)c2)cnc1-c1ccn2nc(C(F)(F)F)cc2n1` [Compound 97, 5-(3-(ethylsulfonyl)-5-(1-methyl-1H-pyrazol-4-yl)pyridin-2-yl)-2-(trifluoromethyl)pyrazolo[1,5-a]pyrimidine], no less than 70%.
`CCSc1ccc(C)nc1-c1ccn2nc(C(F)(F)F)nc2n1` [Compound 187, 5-(3-(ethylthio)-6-methylpyridin-2-yl)-2-(trifluoromethyl)-[1,2,4]triazolo[1,5-a]pyrimidine]: the mortality at 300 ppm was no less than 70%.
On to `CC#Cc1ccc(S(=O)(=O)CC)c(-c2ccn3nc(C(F)(F)F)cc3n2)n1` [Compound 173, 5-(3-(ethylsulfonyl)-6-(prop-1-yn-1-yl)pyridin-2-yl)-2-(trifluoromethyl)pyrazolo[1,5-a]pyrimidine], for which the mortality at 300 ppm is no less than 70%.
Under `CCS(=O)(=O)c1ccc(NCC2CC2)nc1-c1ccn2nc(C(F)(F)F)cc2n1` [Compound 242, N-(cyclopropylmethyl)-5-(ethylsulfonyl)-6-(2-(trifluoromethyl)pyrazolo[1,5-a]pyrimidin-5-yl)pyridin-2-amine] stands no less than 70%.
Under `CCS(=O)(=O)c1ccc(-c2ccc(Cl)cc2)nc1-c1ccn2nc(C(F)(F)F)cc2n1` [Compound 20, 5-(6-(4-chlorophenyl)-3-(ethylsulfonyl)pyridin-2-yl)-2-(trifluoromethyl)pyrazolo[1,5-a]pyrimidine] stands no less than 70%.
Consider `C=Cc1cnc(-c2ccn3nc(C(F)(F)F)cc3n2)c(S(=O)(=O)CC)c1` [Compound 212, 5-(3-(ethylsulfonyl)-5-vinylpyridin-2-yl)-2-(trifluoromethyl)pyrazolo[1,5-a]pyrimidine], for which the mortality at 300 ppm was no less than 70%.
Turning to `CCSc1cc(-c2ccnn2C)cnc1-c1ccn2nc(C(F)(F)F)cc2n1` [Compound 67, 5-(3-(ethylthio)-5-(1-methyl-1H-pyrazol-5-yl)pyridin-2-yl)-2-(trifluoromethyl)pyrazolo[1,5-a]pyrimidine], the mortality at 300 ppm is no less than 70%.
For `CCS(=O)(=O)c1ccc(C2CC2)nc1-c1ccn2nc(C(F)(F)F)nc2n1` [Compound 180, 5-(6-cyclopropyl-3-(ethylsulfonyl)pyridin-2-yl)-2-(trifluoromethyl)-[1,2,4]triazolo[1,5-a]pyrimidine], the mortality at 300 ppm was no less than 70%.
To `CCS(=O)(=O)c1cc(C2CCC2)cnc1-c1ccn2nc(C(F)(F)F)cc2n1` [Compound 213, 5-(5-cyclobutyl-3-(ethylsulfonyl)pyridin-2-yl)-2-(trifluoromethyl)pyrazolo[1,5-a]pyrimidine] belongs no less than 70%.
